Laboratory results from patent US11219621B2, “Methods for treating immunodeficiency disease” (X4 Pharmaceuticals, Inc., priority 2015, dated 2022).
pIC50: −log10 of the molar value.

Tests used:
[1] = tested on: white blood cells (WBC), neutrophils, lymphocytes; experiment: Hematologic effects of a single oral dose in the male Beagle dog; type: in vivo
Protocol: Three fasted male Beagle dogs received a single dose of […]-001 in aqueous solution by oral gavage at dose levels of 5, 15, and 35 mg/kg (1 dog per dose level) in a volume of 1 mL/kg. Blood samples (approximately 3 mL each) were obtained at multiple timepoints from each animal by direct venipuncture of the jugular vein and collected using Vacutainer® tubes containing K3EDTA as the anticoagulant. […] Blood samples were stored at ambient room temperature prior to automated differential analysis Body weights were determined prior to dosing on the day of test article administration. […] Hematology parameters included the following: White Blood Cell Count (WBC) Differential white blood cell count (absolute and relative) • Neutrophil • Lymphocytes • Monocytes • Eosinophils • Basophils • Large Unstained Cells (LUC) • Hematocrit (HCT) • Hemoglobin (HGB) • Mean Corpuscular Hemoglobin (MCH) • Mean Corpuscular Hemoglobin Concentration (MCHC) • Mean Corpuscular Volume (MCV) • Platelet Count (PLT) • Red Blood Cell Count (RBC) Results

[2] = tested on: granulocyte-macrophage (CFU-GM), erythroid (BFU-E) and multipotential (CFU-GEMM) progenitor cells; experiment: Progenitor/stem cell mobilization in mice after single subcutaneous injection; type: in vivo, C3H/HeJ mice; details: for BFU (BFU-E), Mean / GEMM (CFU-GEMM), Mean / GM (CFU-GM), Mean: progenitor cells per mL of blood
Protocol: All experiments were performed in […] mice. […] The progenitors were stimulated to form colonies in vitro with the combination of 1 U/mL rhu EPO, 50 ng/mL rmu SLF, 5% vol/vol pokeweed mitogen mouse spleen cell conditioned medium (PWMSCM), and 0.1 mM hemin. Plates were scored 7 days after incubation at 37° C., 5% CO2, lowered […] and in a humidified chamber.
In the first experiment (data shown in Table 6), mice received a dose of 5 mg/kg- and the number of progenitors in the circulating blood was measured at various time points (0.25, 0.5, 1, 2, 6 and 24 hours).

[3] = target: T1, CCR2b (Homo sapiens, UniProt P41597); details: cited from earlier work
T1 construct: expressed in transfected cells
T1 sequence (P41597 1-360 isoform P41597-2): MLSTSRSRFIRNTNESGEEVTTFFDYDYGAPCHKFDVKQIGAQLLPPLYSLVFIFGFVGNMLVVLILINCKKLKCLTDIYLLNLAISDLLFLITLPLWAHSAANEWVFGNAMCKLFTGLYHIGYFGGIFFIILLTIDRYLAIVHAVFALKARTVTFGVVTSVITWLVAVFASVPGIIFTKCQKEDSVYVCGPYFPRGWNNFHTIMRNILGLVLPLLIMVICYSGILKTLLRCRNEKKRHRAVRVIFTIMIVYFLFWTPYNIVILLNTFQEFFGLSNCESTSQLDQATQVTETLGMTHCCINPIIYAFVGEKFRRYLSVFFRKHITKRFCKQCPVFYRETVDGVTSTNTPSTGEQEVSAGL

[4] = Clinical studies, oral administration to healthy volunteers and HIV patients
[5] = tested on: granulocyte-macrophage (CFU-GM), erythroid (BFU-E) and multipotential (CFU-GEMM) progenitor cells; experiment: Progenitor/stem cell mobilization in mice after single subcutaneous injection; type: in vivo, C3H/HeJ mice
[6] = target: T2, BLT1 (Homo sapiens, UniProt Q15722); details: cited from earlier work
T2 construct: expressed in transfected cells

[7] = target: T3, CCR5 (Homo sapiens, UniProt P51681); details: cited from earlier work
T3 construct: expressed in transfected cells

[8] = single oral dose 5, 15, 35 mg/kg
[9] = Table 6, 5 mg/kg s.c., @ - 2′ (2 h)
[10] = Table 6, 5 mg/kg s.c., @ - 6′ (6 h)
[11] = Table 6, 5 mg/kg s.c., @ - 15″ ([…])
[12] = Table 6, 5 mg/kg s.c., @ - 24′ (24 h)
[13] = Table 6, 5 mg/kg s.c., @ - 30″ (0.5 h)
[14] = Table 6, 5 mg/kg s.c., @ - 60″ (1 h)
[15] = Table 7, 1 hour post-injection, 1.5 mg/kg s.c.
[16] = Table 7, 1 hour post-injection, 5 mg/kg s.c.
[17] = Table 7, 1 hour post-injection, 10 mg/kg s.c.
[18] = Table 7, 1 hour post-injection, 20 mg/kg s.c.
[19] = Table 8, 5 mg/kg s.c., @ - 2′ (2 h)
[20] = Table 8, 5 mg/kg s.c., @ - 15″ ([…])
[21] = Table 8, 5 mg/kg s.c., @ - 30″ (0.5 h)
[22] = Table 8, 5 mg/kg s.c., @ - 60″ (1 h)
[23] = time course, 5 mg/kg s.c., 30-60 min.

T2 sequence (Q15722 whole entry): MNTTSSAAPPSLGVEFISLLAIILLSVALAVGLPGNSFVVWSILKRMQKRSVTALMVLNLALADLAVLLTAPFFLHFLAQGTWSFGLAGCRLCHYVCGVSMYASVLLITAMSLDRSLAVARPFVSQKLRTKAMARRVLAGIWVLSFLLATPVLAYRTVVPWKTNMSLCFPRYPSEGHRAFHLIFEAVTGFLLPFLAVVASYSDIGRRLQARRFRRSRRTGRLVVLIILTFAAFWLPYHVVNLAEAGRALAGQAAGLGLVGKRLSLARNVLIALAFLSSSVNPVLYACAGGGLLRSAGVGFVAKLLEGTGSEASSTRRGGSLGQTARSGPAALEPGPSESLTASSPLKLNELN
T3 sequence (P51681 whole entry): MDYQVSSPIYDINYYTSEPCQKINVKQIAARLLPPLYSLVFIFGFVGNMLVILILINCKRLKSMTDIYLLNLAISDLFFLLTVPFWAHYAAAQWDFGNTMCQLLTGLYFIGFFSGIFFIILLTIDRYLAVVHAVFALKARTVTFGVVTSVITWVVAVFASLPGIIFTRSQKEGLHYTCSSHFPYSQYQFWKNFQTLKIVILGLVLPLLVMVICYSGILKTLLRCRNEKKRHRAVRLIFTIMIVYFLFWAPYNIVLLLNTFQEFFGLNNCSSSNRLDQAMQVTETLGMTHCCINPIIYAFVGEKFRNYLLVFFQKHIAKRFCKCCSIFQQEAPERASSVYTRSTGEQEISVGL

NCCCCN(Cc1nc2ccccc2[nH]1)[C@H]1CCCc2cccnc21 [X4P-001]
Peak elevations of WBC above baseline ([1]; 5 mg/kg dose level): 1.5 fold
Total circulating WBC, neutrophils, and lymphocytes, increase ([1]; 5 mg/kg, all three cell counts): 1.47 × baseline
Lymphocytes, increase ([1]; 15 mg/kg): 2.9 ×
Neutrophils, increase ([1]; 15 mg/kg): 1.8 ×
Lymphocytes, increase ([1]; 35 mg/kg): 1.9 ×
Neutrophils, increase ([1]; 35 mg/kg): 2.7 ×
Time at which increases were consistently apparent ([1]; 5, 15, and 35 mg/kg): 4 h
Time of peak of increases ([1]; 5, 15, and 35 mg/kg, typically, occasionally earlier): ~12 h
Peak elevations of WBC above baseline ([1]; 15 and 35 mg/kg dose levels): 1.8-2.9 fold
WBC, neutrophil, and lymphocyte counts at 24 hours ([1]; 15 and 35 mg/kg, with evidence of return to baseline): remained elevated
Other hematological effects [1, 8]: No other hematological effects
Time of maximal increases in WBC [1, 8]: 4-12 hours post-dose
BFU (BFU-E), Mean [2, 9]: 165.3
GEMM (CFU-GEMM), Mean [2, 9]: 68.9
GM (CFU-GM), Mean [2, 9]: 897.5
BFU (BFU-E), Mean [2, 10]: 99.9
GEMM (CFU-GEMM), Mean [2, 10]: 37.6
GM (CFU-GM), Mean [2, 10]: 387.5
BFU (BFU-E), Mean [2, 11]: 148.8
GEMM (CFU-GEMM), Mean [2, 11]: 65.6
GM (CFU-GM), Mean [2, 11]: 785.1
BFU (BFU-E), Mean [2, 12]: 84.6
GEMM (CFU-GEMM), Mean [2, 12]: 37.7
GM (CFU-GM), Mean [2, 12]: 386.3
BFU (BFU-E), Mean [2, 13]: 230.4
GEMM (CFU-GEMM), Mean [2, 13]: 99.6
GM (CFU-GM), Mean [2, 13]: 1273.8
BFU (BFU-E), Mean [2, 14]: 235.1
GEMM (CFU-GEMM), Mean [2, 14]: 103.1
GM (CFU-GM), Mean [2, 14]: 866.0
Nucleated Cellularity PBL-LD, Mean ([2]; Table 6 time course, 5 mg/kg s.c., @ - 2′ (2 h)): 8.29e+06 mL⁻¹
Nucleated Cellularity PBL-LD, Mean ([2]; Table 6 time course, 5 mg/kg s.c., @ - 6′ (6 h)): 5.66e+06 mL⁻¹
Nucleated Cellularity PBL-LD, Mean ([2]; Table 6 time course, 5 mg/kg s.c., @ - 15″ ([…])): 5.1e+06 mL⁻¹
Nucleated Cellularity PBL-LD, Mean ([2]; Table 6 time course, 5 mg/kg s.c., @ - 24′ (24 h)): 4.31e+06 mL⁻¹
Nucleated Cellularity PBL-LD, Mean ([2]; Table 6 time course, 5 mg/kg s.c., @ - 30″ (0.5 h)): 6.14e+06 mL⁻¹
Nucleated Cellularity PBL-LD, Mean ([2]; Table 6 time course, 5 mg/kg s.c., @ - 60″ (1 h)): 6.92e+06 mL⁻¹
BFU (BFU-E), Mean [2, 15]: 143.8
GM (CFU-GM), Mean [2, 15]: 428.0
BFU (BFU-E), Mean [2, 16]: 181.6
GEMM (CFU-GEMM), Mean [2, 16]: 141.0
GM (CFU-GM), Mean [2, 16]: 1119.8
GEMM (CFU-GEMM), Mean [2, 17]: 224.4
GM (CFU-GM), Mean [2, 17]: 1444.2
BFU (BFU-E), Mean [2, 18]: 261.4
GEMM (CFU-GEMM), Mean [2, 18]: 145.0
GM (CFU-GM), Mean [2, 18]: 1314.2
Nucleated Cellularity PBL-LD, Mean ([2]; Table 7 dose response, 1 hour post-injection, 1.5 mg/kg s.c.): 6.94e+06 mL⁻¹
Nucleated Cellularity PBL-LD, Mean ([2]; Table 7 dose response, 1 hour post-injection, 5 mg/kg s.c.): 7.65e+06 mL⁻¹
Nucleated Cellularity PBL-LD, Mean ([2]; Table 7 dose response, 1 hour post-injection, 10 mg/kg s.c.): 9.94e+06 mL⁻¹
BFU (BFU-E), Mean [2, 19]: 108.5
GEMM (CFU-GEMM), Mean [2, 19]: 62.4
GM (CFU-GM), Mean [2, 19]: 619.6
BFU (BFU-E), Mean [2, 20]: 188.9
GEMM (CFU-GEMM), Mean [2, 20]: 93.8
GM (CFU-GM), Mean [2, 20]: 588.3
GEMM (CFU-GEMM), Mean [2, 21]: 79.0
GM (CFU-GM), Mean [2, 21]: 705.9
GEMM (CFU-GEMM), Mean [2, 22]: 102.2
GM (CFU-GM), Mean [2, 22]: 761.4
Nucleated Cellularity PBL-LD, Mean ([2]; Table 8 comparison, 5 mg/kg s.c., @ - 2′ (2 h)): 9.71e+06 mL⁻¹
Nucleated Cellularity PBL-LD, Mean ([2]; Table 8 comparison, 5 mg/kg s.c., @ - 15″ ([…])): 8.04e+06 mL⁻¹
Nucleated Cellularity PBL-LD, Mean ([2]; Table 8 comparison, 5 mg/kg s.c., @ - 30″ (0.5 h)): 8.28e+06 mL⁻¹
Nucleated Cellularity PBL-LD, Mean ([2]; Table 8 comparison, 5 mg/kg s.c., @ - 60″ (1 h)): 7.34e+06 mL⁻¹
Peak increase of BFU-E over control (saline injection) [2, 23]: 2.49-2.54 fold
Peak increase of CFU-GEMM over control (saline injection) [2, 23]: 2.58-2.67 fold
Peak increase of CFU-GM over control (saline injection) ([2]; time course, 5 mg/kg s.c., 30 min.): 4.21 fold
Time of peak of nucleated cell mobilization ([2]; time course, 5 mg/kg s.c., approximately): 1-2 hours post-injection
Number of circulating progenitors ([2]; up to a dose of 5-10 mg/kg s.c.): dose-dependently increased
pIC50 ([3]; CCR2b, HEK293F-CCR2b, MCP-1/CCL2, read-out: IC50 AMD11070): < 4.30
Inhibitory effect on MCP-1 mediated calcium flux (CCR2b) [3]: little or no inhibitory effect
Pharmacodynamic activity, circulating white blood cells (WBCs) ([4]; healthy volunteers and HIV patients): dose- and concentration-related changes
Increases in WBC counts ([4]; human subjects, dose-dependent, FIG. 9): 2-3 ×
GEMM (CFU-GEMM), Mean ([5]; Table 7, progenitor cells per mL of blood, 1 hour post-injection, 1.5 mg/kg s.c.): 53.3
BFU (BFU-E), Mean ([5]; Table 7, progenitor cells per mL of blood, 1 hour post-injection, 10 mg/kg s.c.): 268.1
Nucleated Cellularity PBL-LD, Mean ([5]; Table 7 dose response, 1 hour post-injection, 20 mg/kg s.c.): 9.62e+06 mL⁻¹
BFU (BFU-E), Mean ([5]; Table 8, progenitor cells per mL of blood, 5 mg/kg s.c., @ - 30″ (0.5 h)): 151.9
BFU (BFU-E), Mean ([5]; Table 8, progenitor cells per mL of blood, 5 mg/kg s.c., @ - 60″ (1 h)): 144.3
pIC50 ([6]; BLT1, CHO-S-LTB4, LTB4, ligand binding, read-out: IC50 AMD11070): < 4.30
Inhibitory effect on LTB4 binding to BLT1 [6]: little or no inhibitory effect
pIC50 ([7]; CCR5, HEK293F-CCR5, RANTES/CCL5, read-out: IC50 AMD11070): < 4.30
Inhibitory effect on RANTES mediated calcium flux (CCR5) [7]: little or no inhibitory effect
